The experiment has as its target T1, human FXR (Homo sapiens, UniProt Q96RI1).
T1 construct: expressed in transfected cells; host or cells: HEK293 cells stably carrying a 5xGal4-response-element firefly luciferase reporter, transiently transfected with pcDNA3.1-Gal4-FXR
T1 sequence (Q96RI1 262-486 limits assumed): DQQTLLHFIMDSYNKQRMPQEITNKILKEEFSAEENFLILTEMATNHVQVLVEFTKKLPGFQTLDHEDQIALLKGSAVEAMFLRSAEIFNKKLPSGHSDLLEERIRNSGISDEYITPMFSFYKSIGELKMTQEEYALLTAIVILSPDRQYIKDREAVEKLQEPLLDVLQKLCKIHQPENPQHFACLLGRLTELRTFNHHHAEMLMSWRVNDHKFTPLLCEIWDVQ
Nature of the experiment: transient human FXR/Gal4-luciferase reporter assay. The format is cell-based. As to conditions: Gal4-hFXR fusion construct, luciferase reporter HEK293 cells; response relative to 8 μM GW-4064; unit inferred. On the procedure:
The exemplified compounds of the present invention were tested in the transient human FXR/Gal4-luciferase reporter assay, and assay results were reported in Table 1 and Examples 1 to 3 together with other analytical data.
A Gal4-hFXR fusion construct reporter system was used as the primary assay to characterize compound activity. A construct including 5 copies of the Gal4 promoter response element upstream of a firefly luciferase reporter cDNA was stably expressed in HEK293 cells. This reporter cell line was maintained in Dulbecco's Modified Eagle's medium (DMEM; Gibco) supplemented with 1% penicillin-streptomycin (P/S) solution, 500 μg/mL Zeocin and 10% charcoal/dextran-treated fetal bovine serum (cs-FBS) at 37° C. in a humidified 5% CO2 atmosphere. Another plasmid was constructed in which the human cytomegalovirus promoter in the pcDNA3.1 vector directs the expression of the cDNA encoding a fusion protein comprised of the DNA binding domain from the Gal4 transcription factor fused to the ligand binding domain from human FXR.
The day prior to transfection, the reporter cells in culture are detached from the plate with trypsin and plated into a T75 flask at a sufficient density to achieve approximately 90% confluence the next morning. The transfection reagents are prepared by separately diluting 25 μg of the pcDNA3.1-Gal4-FXR plasmid into 1.87 mL of Opti-MEM (Thermo-Fisher), and 40 μL of Lipofectamine 2000 (Thermo-Fisher) into 1.87 mL of Opti-MEM, and then adding the diluted DNA solution into the diluted Lipofectamine 2000 solution and incubating at room temperature for 15-20 minutes. The mixture is further diluted with 10 mL of a solution comprised of DMEM, 10% cs-FBS, and 1% P/S immediately prior to transferring to the cells. The maintenance culture media is aspirated from the cells and the final transfection mixture is added before the cells are incubated overnight at 37° C. in a humidified 5% CO2 atmosphere. This protocol can be scaled up, and the transiently transfected cells can be cryopreserved in an assay-ready format.
For compound testing, 100 nL of the compounds (serial dilutions in DMSO) are dispensed with an Echo acoustic dispenser (Labcyte) into the wells of a Corning/Costar clear bottom 384-well white plate. The transfected cells are harvested, counted, and diluted such that 10-25,000 cells in 25 μL are plated into each well of the 384-well compound assay plate. The compound-treated cells are incubated overnight at 37° C. in a humidified 5% CO2 atmosphere. The next morning 25 μL of Steady-Glo (Promega) are added to each well of the plate, the mixture is incubated for 15 min. with shaking, and luminescence is measured on an Envision (Perkin Elmer) plate reader. Background counts from cells treated with DMSO alone are subtracted from all raw counts, and the corrected values are converted to a percentage of the control response attained with 8 μM GW-4064.
In general terms: A reporter such as luciferase makes a cellular process visible.

The EC50 is the midpoint of the concentration-response curve. As to `O=C(O)c1cc2ccc(OCC3CC4(CC(/C=C/c5c(-c6ccccc6C(F)(F)F)noc5C5CC5)C4)C3)cc2nn1` (centres unmarked) [Example 54], the EC50 was found to be 122 nM. As for `O=C(O)c1ncc(OCC2CC3(CC(/C=C/c4c(-c5c(Cl)cncc5Cl)noc4C4CC4)C3)C2)cc1C(F)(F)F` (centres unmarked) [Example 55], the EC50 turned out to be 50 nM.

The compound `O=C(O)c1ncc(OCC2CC3(CC(/C=C/c4c(-c5ccccc5C(F)(F)F)noc4C4CC4)C3)C2)cc1C(F)(F)F` (centres unmarked) [Example 56] showed an EC50 of 95 nM.

`O=C(O)c1cc2ccc(OCC3CC4(CC(/C=C/c5c(-c6c(Cl)cncc6Cl)noc5C5CC5)C4)C3)cc2nn1` (centres unmarked) [Example 57]: a half-maximal effect (EC50) was put at 75 nM.

`O=C(O)c1ncc(OCC2CC3(CC(/C=C/c4c(-c5c(Cl)cncc5Cl)noc4C4CC4)C3)C2)cc1OC1CCC1` (centres unmarked) [Example 58] gave an EC50 of 22 nM. In turn, `Cc1c(OCC2CC3(CC(/C=C/c4c(-c5c(Cl)cncc5Cl)noc4C4CC4)C3)C2)nn(C(C)C)c1C(=O)O` (centres unmarked) [Example 59] returned an EC50 of 85 nM.

The compound `O=C(O)c1cc(OCC2CC3(CC(/C=C/c4c(-c5c(Cl)cncc5Cl)noc4C4CC4)C3)C2)n(C2CC2)n1` (centres unmarked) [Example 60] yielded an EC50 of 34 nM.

As for `O=C(O)c1ncc(OCC2CC3(CC(/C=C/c4c(-c5ccccc5C(F)(F)F)noc4C4CC4)C3)C2)cc1OC1CC1` (centres unmarked) [Example 61], the EC50 is 16 nM.

As to `O=C(O)c1ncc(OCC2CC3(CC(/C=C/c4c(-c5ccccc5C(F)(F)F)noc4C4CC4)C3)C2)cc1OC1CCC1` (centres unmarked) [Example 62], it took 36 nM to reach a half-maximal effect (EC50).

As for `NC(=O)c1ncc(OCC2CC3(CC(/C=C/c4c(-c5ccccc5C(F)(F)F)noc4C4CC4)C3)C2)cc1OC1CCC1` (centres unmarked) [Example 63], the response was half-maximal at 393 nM (EC50). Consider `NC(=O)c1ncc(OCC2CC3(CC(/C=C/c4c(-c5ccccc5C(F)(F)F)noc4C4CC4)C3)C2)cc1OC1CC1` (centres unmarked) [Example 64], for which the EC50 came to 667 nM. `NC(=O)c1ncc(OCC2CC3(CC(/C=C/c4c(-c5c(Cl)cncc5Cl)noc4C4CC4)C3)C2)cc1OC1CCC1` (centres unmarked) [Example 65] yielded an EC50 of 153 nM. On to `CN1CCN(c2cc(C(=O)O)nc3ccc(OCC4CC5(CC(/C=C/c6c(-c7c(Cl)cncc7Cl)noc6C6CC6)C5)C4)cc23)CC1` (centres unmarked) [Example 66], for which a half-maximal response (EC50) required 188 nM. Under `CN1CCN(c2cc(C(=O)O)nc3ccc(OCC4CC5(CC(/C=C/c6c(-c7ccccc7C(F)(F)F)noc6C6CC6)C5)C4)cc23)CC1` (centres unmarked) [Example 67] stands 302 nM.

The values above are taken from patent publication US11286252B2, “Alkene spirocyclic compounds as farnesoid X receptor modulators” (BRISTOL-MYERS SQUIBB COMPANY, priority 2017, dated 2022).
